In patent US20240238249A1, “Lipidic Nano-Pharmaceuticals” (Huxley Health Inc., priority 2022, published 2024):

Tests used:
[1] = 14C labelled psilocybin, animals; cited from earlier work
[2] = 14C mescaline injected into developing rats; especially in adult animals; cited from earlier work

CN(C)CCc1c[nH]c2cccc(OP(=O)(O)O)c12 [psilocybin]
absorption following oral administration [1]: < 50%

CCCCCCCC(=O)Oc1ccc2[nH]cc(CCN(C)C)c2c1
melting point: 48.3 to 50.2 °C

COc1cc(CCN)cc(OC)c1OC [mescaline, 3,4,5-trimethoxyphenethylamine]
permeability of the BBB to mescaline [2]: nearly impermeable
